According to US20220361547A1, “TASTE MODIFYING COMPOSITIONS AND USES THEREOF” (Firmenich Incorporated, priority 2019, published 2022):
Where a name gives a salt, the structure may show the parent alone.

Experiment: Sensory testing: taste testers rate sweetness of aqueous sweetener compositions without and with A1
Format: in vivo, human
Details: scale from 1 to 10
Method: Compositions of various sweetening agents were prepared without any additive and with the sodium salt of N-(1-((4-amino-2,2-dioxo-1H-benzo[c][1,2,6]thiadiazin-5-yl)oxy)-2-methyl-propan-2-yl)isonicotinamide (A1) added at various concentrations. Taste testers were asked to rate the sweetness of the resulting aqueous compositions for sweetness on a scale from 1 to 10.

`C=C1C[C@@]23CC[C@H]4[C@@](C)(CCC[C@@]4(C)C(=O)O[C@@H]4O[C@H](CO)[C@@H](O)[C@H](O[C@@H]5O[C@H](CO)[C@@H](O)[C@H](O)[C@H]5O)[C@H]4O[C@@H]4O[C@H](CO)[C@@H](O)[C@H](O)[C@H]4O)[C@@H]2CC[C@]1(O[C@@H]1O[C@H](CO)[C@@H](O)[C@H](O[C@@H]2O[C@H](CO)[C@@H](O)[C@H](O)[C@H]2O)[C@H]1O[C@@H]1O[C@H](CO)[C@@H](O)[C@H](O)[C@H]1O)C3` [Reb M, Rebaudioside M, reference compound] showed a sweetness rating (aqueous Reb M (200 ppm), No A1) of 4.7.
For `O=C[C@H](O)[C@@H](O)[C@H](O)[C@H](O)CO` [D-(+)-Glucose, reference compound], the sweetness rating (aqueous D-(+)-Glucose (7%), No A1) was 3.8.
With `OC[C@H]1O[C@@](CO)(O[C@H]2O[C@H](CO)[C@@H](O)[C@H](O)[C@H]2O)[C@@H](O)[C@@H]1O` [Sucrose, reference compound] the sweetness rating (aqueous Sucrose (5%), No A1) was 3.6.
For `O=C(CO)[C@@H](O)[C@H](O)[C@H](O)CO` [Fructose, reference compound], the sweetness rating (aqueous Fructose (7%), No A1) was 7.1.
For `OC[C@@H](O)[C@@H](O)CO` [Erythritol, reference compound], the sweetness rating (aqueous Erythritol (5%), No A1) was 4.0.
Compound `CC(C)(COc1cccc2c1C(N)=NS(=O)(=O)N2)NC(=O)c1ccncc1` [A1, sodium salt of N-(1-((4-amino-2,2-dioxo-1H-benzo[c][1,2,6]thiadiazin-5-yl)oxy)-2-methyl-propan-2-yl)isonicotinamide] has a sweetness rating (aqueous Allulose (3.5%) with 4 ppm A1) of 3.7, a sweetness rating (aqueous Allulose (3.5%) with 8 ppm A1) of 4.7 and a sweetness rating (aqueous Allulose (3.5%) with 12 ppm A1) of 4.1. It also gave a sweetness rating (aqueous Allulose (3.5%) with 16 ppm A1) of 5.5, a sweetness rating (aqueous D-(+)-Glucose (7%) with 4 ppm A1) of 4.5 and a sweetness rating (aqueous D-(+)-Glucose (7%) with 8 ppm A1) of 4.2. For the same compound, the sweetness rating (aqueous D-(+)-Glucose (7%) with 12 ppm A1) was 5.2, the sweetness rating (aqueous D-(+)-Glucose (7%) with 16 ppm A1) was 5.7 and the sweetness rating (aqueous Erythritol (5%) with 4 ppm A1) was 4.4. It also gave a sweetness rating (aqueous Erythritol (5%) with 8 ppm A1) of 4.4, a sweetness rating (aqueous Erythritol (5%) with 12 ppm A1) of 5.7 and a sweetness rating (aqueous Erythritol (5%) with 16 ppm A1) of 6.0. It also gave a sweetness rating (aqueous Fructose (7%) with 4 ppm A1) of 7.1, a sweetness rating (aqueous Fructose (7%) with 8 ppm A1) of 7.4 and a sweetness rating (aqueous Fructose (7%) with 12 ppm A1) of 8.0. It also gave a sweetness rating (aqueous Fructose (7%) with 16 ppm A1) of 8.3, a sweetness rating (aqueous HFCS (7%) with 4 ppm A1) of 5.9 and a sweetness rating (aqueous HFCS (7%) with 8 ppm A1) of 7.2. It also gave a sweetness rating (aqueous HFCS (7%) with 12 ppm A1) of 7.4, a sweetness rating (aqueous Reb M (200 ppm) with 4 ppm A1) of 5.3 and a sweetness rating (aqueous Reb M (200 ppm) with 8 ppm A1) of 6.3. The sweetness rating (aqueous Reb M (200 ppm) with 12 ppm A1) was 6.1, the sweetness rating (aqueous Reb M (200 ppm) with 16 ppm A1) was 7.3 and the sweetness rating (aqueous Sucralose (80 ppm) with 4 ppm A1) was 6.1. It also gave a sweetness rating (aqueous Sucralose (80 ppm) with 8 ppm A1) of 6.6, a sweetness rating (aqueous Sucralose (80 ppm) with 12 ppm A1) of 7.1 and a sweetness rating (aqueous Sucralose (80 ppm) with 16 ppm A1) of 7.0. For the same compound, the sweetness rating (aqueous Sucrose (5%) with 4 ppm A1) was 6.4, the sweetness rating (aqueous Sucrose (5%) with 8 ppm A1) was 7.3 and the sweetness rating (aqueous Sucrose (5%) with 12 ppm A1) was 8.0.
For `O=C(CO)C(O)C(O)C(O)CO` (stereo not shown) [Allulose, reference compound], the sweetness rating (aqueous Allulose (3.5%), No A1) was 3.0.
Work on `OC[C@H]1O[C@H](O[C@]2(CCl)O[C@H](CCl)[C@@H](O)[C@@H]2O)[C@H](O)[C@@H](O)[C@H]1Cl` [Sucralose, reference compound] yielded a sweetness rating (aqueous Sucralose (80 ppm), No A1) of 3.3.
